The assay deals with Glutaminyl-peptide cyclotransferase (Homo sapiens, UniProt Q16769). Briefly: Spectrophotometic Assay: Spectrophotometic Assay: This novel assay was used to determine the kinetic parameters for most of the QC substrates. QC activity was analyzed spectrophotometrically using a continuous method, that was derived by adapting a previous discontinuous assay (Bateman, R.C.J. 1989 J Neurosci Methods 30, 23-28).
Glutaminyl-peptide cyclotransferase, sequence (Q16769 whole entry): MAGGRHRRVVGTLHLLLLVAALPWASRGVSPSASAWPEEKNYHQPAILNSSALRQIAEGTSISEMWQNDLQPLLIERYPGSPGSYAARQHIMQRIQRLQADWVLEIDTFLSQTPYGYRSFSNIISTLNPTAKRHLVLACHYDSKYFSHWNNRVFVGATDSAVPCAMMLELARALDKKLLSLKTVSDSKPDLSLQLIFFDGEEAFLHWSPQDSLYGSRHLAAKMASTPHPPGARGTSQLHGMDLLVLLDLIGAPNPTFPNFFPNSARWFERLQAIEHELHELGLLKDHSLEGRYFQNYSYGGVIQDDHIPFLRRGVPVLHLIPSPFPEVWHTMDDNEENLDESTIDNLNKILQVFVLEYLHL
In the case of `O=C1NCC(c2ccc(N3CCCCC3)cc2)N1c1ccn2ccnc2c1` (configuration not stated), the IC50 is below 10 µM.

With `CCCOc1ccc([C@H]2OC(=O)N(c3ccc4nc[nH]c4c3)[C@H]2c2ccc(OCCC)cc2)cc1` (single isomer, unassigned), the IC50 was below 10 µM.

In turn, `O=C1NCC(c2ccc(-c3ccc(Cl)c(Cl)c3)cc2)N1c1ccc2nc[nH]c2c1` (configuration not stated) came in with an IC50 below 10 µM.

On to `O=C1OC[C@H](c2cccc(F)c2)N1c1ccc2[nH]cnc2c1`, for which the IC50 is below 10 µM.

With `O=C1OC[C@H](c2ccc(-c3ccccc3)cc2)N1c1ccc2[nH]cnc2c1`, the IC50 was below 10 µM.

For the molecule `O=C1NCC(c2ccc(N3CCCC3)cc2)N1c1ccn2ccnc2c1` (configuration not stated), the 50% inhibitory concentration (IC50) was below 10 µM.

`O=C1NCC(c2c(F)cccc2F)N1c1ccc2[nH]cnc2c1` (configuration not stated) yielded an IC50 below 10 µM.

As to `CN(C)CCOc1ccc([C@H]2COC(=O)N2c2ccc3[nH]cnc3c2)cc1`, the IC50 was below 10 µM.

With `Cc1cc(N2C(=O)OC[C@@H]2c2ccccc2)cc2nc[nH]c12`, the IC50 is below 10 µM.

The molecule `CN1CCC(c2ccc(C3COC(=O)N3c3ccc4[nH]cnc4c3)cc2)CC1` (configuration not stated) yielded an IC50 below 10 µM.

`CCOc1ccc(C2CNC(=O)N2c2ccc3[nH]cnc3c2)cc1` (configuration not stated) displayed an IC50 below 10 µM.

On to `O=C1OC[C@H](c2ccc(N3CCCCC3)cc2)N1c1ccc2[nH]cnc2c1`, for which the IC50 was below 10 µM.

As to `O=C1OC[C@H](c2cccc(-c3cccc(Cl)c3)c2)N1c1ccc2nc[nH]c2c1`, the IC50 is below 10 µM.

`O=C1OC[C@H](c2cc(F)cc(C(F)(F)F)c2)N1c1ccc2nc[nH]c2c1` had an IC50 below 10 µM.

`O=C1NCC(c2ccc(C3CCC(N4CCOCC4)CC3)cc2)N1c1ccc2[nH]cnc2c1` (configuration not stated) came in with a 50% inhibitory concentration (IC50) below 10 µM.

`O=C1OC[C@H](c2ccc(N3CCOCC3)cc2)N1c1ccn2ccnc2c1` gave an IC50 below 10 µM.

Molecule `O=C1OC[C@H](c2cccc(Cl)c2)N1c1ccc2nc[nH]c2c1` displayed an IC50 below 10 µM.

In turn, `O=C1NCC(c2ccccc2F)N1c1ccc2[nH]cnc2c1` (configuration not stated) came in with an IC50 below 10 µM.

`O=C1CCC(c2ccc3c(c2)OCCO3)N1c1ccc2[nH]cnc2c1` (configuration not stated) displayed an IC50 below 10 µM.

In turn, `COc1ccccc1C1CNC(=O)N1c1ccc2[nH]cnc2c1` (configuration not stated) displayed an IC50 below 10 µM.

`CCCOc1ccc(C2CNC(=O)N2c2ccc3[nH]cnc3c2)cc1F` (configuration not stated): the IC50 is below 10 µM.

Take `COc1ccc(C2CCC(=O)N2c2ccc3[nH]cnc3c2)cc1` (configuration not stated): the IC50 is below 10 µM.

`O=C1NCC(c2cccc(F)c2)N1c1ccc2nc[nH]c2c1` (configuration not stated) registered an IC50 below 10 µM.

In turn, `O=C1CCC(c2ccc(C3CNC(=O)N3c3ccc4[nH]cnc4c3)cc2)CC1` (configuration not stated) returned an IC50 below 10 µM.

Molecule `O=C1OC[C@H](c2cccc(F)c2F)N1c1ccc2nc[nH]c2c1` registered an IC50 below 10 µM.

`O=C1OC[C@H](c2cccc(N3CCCCC3)c2)N1c1ccc2[nH]cnc2c1` came in with an IC50 below 10 µM.

On to `CC1(C)OC(=O)N(c2ccc3nc[nH]c3c2)[C@H]1c1ccccc1`, for which the IC50 is below 10 µM.

`O=C1NCC(c2ccc(F)cc2)N1c1ccc2[nH]cnc2c1` (configuration not stated) came in with an IC50 below 10 µM.

In turn, `CCCOc1ccc(C2CNC(=O)N2c2ccc3[nH]cnc3c2)c(F)c1` (configuration not stated) yielded an IC50 below 10 µM.

In turn, `COc1cc(C2CNC(=O)N2c2ccc3[nH]cnc3c2)cc2c1OCO2` (configuration not stated) showed an IC50 below 10 µM.

`O=C1OC[C@H](c2ccc(C3CCCCC3)cc2)N1c1ccn2ccnc2c1` came in with an IC50 below 10 µM.

For `O=C1OC[C@H](c2ccc3c(c2)OCCO3)N1c1ccc2nc[nH]c2c1`, the IC50 was below 10 µM.

With `COC1CCC(c2ccc(C3COC(=O)N3c3ccc4[nH]cnc4c3)cc2)CC1` (configuration not stated), the IC50 is below 10 µM.

On to `O=C1NCC(c2ccc(OCCN3CCOCC3)cc2)N1c1ccn2ccnc2c1` (configuration not stated), for which the IC50 was below 10 µM.

In the case of `O=C1OC[C@H](c2ccc(N3CCCCC3)cc2)N1c1ccn2ccnc2c1`, the IC50 is below 10 µM.

The molecule `CC(C)Oc1ccc(C2CNC(=O)N2c2ccc3nc[nH]c3c2)cc1` (configuration not stated) showed an IC50 below 10 µM.

`O=C1NCC(c2cccc(-c3cccc(Cl)c3)c2)N1c1ccc2[nH]cnc2c1` (configuration not stated) gave an IC50 below 10 µM.

These data come from ChEMBL document CHEMBL3638480, “Inhibitors” (2013).
